According to US9980943B2, “Methods of treating muscular dystrophy” (BOARD OF REGENTS OF THE NEVADA SYSTEM OF HIGHER EDUCATION, …, priority 2013, dated 2018):
Blank lines part the entries; values can stand above or below the compound they belong to.

Experiments:
[1] = test system: α7 integrin (LacZ reporter in α7βgal+/− myoblasts); test: Myoblast α7+/LacZ integrin FDG assay (Burkin assay in myoblasts, 96-well); type: cell-based, mouse; details: α7+/LacZ myoblasts, 96-well
[2] = test system: α7 integrin (LacZ reporter in α7+/LacZ myotubes); test: Myotube α7 integrin FDG assay (Burkin assay in myotubes, 96-well); type: cell-based, mouse; details: myotubes; for EC50: nonlinear regression of dose-response curves, read-out: EC50 α7+/LacZ MT; for MT FOLD INCREASE: maximum response
[3] = test system: β-galactosidase in CMV-LacZ C2C12 myoblasts; test: CMV-LacZ secondary screen in C2C12 myoblasts (β-Gal stabilizing assay); type: cell-based, mouse; details: for CMV-LACZ in Myoblasts (β-galactosidase activity relative to DMSO): CMV-LacZ C2C12 myoblasts; for CMV-LACZ in Myoblasts, value relative to DMSO: SU9516 analogs, C2C12 CMV-LacZ, N=2
Description: In order to determine compounds that acted to stabilize β-gal in myogenic cells, a CMV-LacZ C2C12 cell line was used in a secondary screen. The EGFP gene from the pEGFP (Clontech) vector was replaced by LACZ PCR product with digests of the vector/PCR product performed using EcoRI (NEB) and NotI (NEB) and ligated using T4 DNA Ligase (NEB) following standard procedures to produce the CMV-LACZ vector. The LACZ gene was generated by PCR from the pBK-RSV (Stratagene) vector using primers LACZ EcoRI F- and LACZ NotI R-. The CMV-LACZ vector was then digested with AfIII (NEB) to linearize the construct, which was then transfected in C2C12 myoblasts using Lipofectamine 2000 (Invitrogen) following the manufacturer's instructions. […] Clonal lines were selected and screened for βgal levels using the myoblast FDG assay.
The assays were used the original 96-well format and new dose-response curves for myoblasts (N=3-6 replicates for each data point), myotubes (N=3-6 replicates for data point), and CMV-LacZ secondary assay (N=2 replicates for each data point) using concentrations of 0.5 μM, 1 μM, 5 μM, 10 μM, 20 μM, and 40 μM (Tables 9-16).

[4] = test system: β-galactosidase in CMV-LacZ C2C12 myotubes; test: CMV-LacZ secondary screen in C2C12 myotubes (β-Gal stabilizing assay); type: cell-based, mouse; details: for CMV-LACZ in Myotubes, signal relative to DMSO: C2C12 CMV-LacZ myotubes, fold relative to DMSO; for CMV-LACZ in Myotubes, value relative to DMSO: SU9516 analogs, C2C12 CMV-LacZ, N=2
Procedure, shortened: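 Stable CMV-LacZ C2C12 clone; six-point curve 0.5–40 μM; duplicates.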

[5] = test system: α7 integrin (LacZ reporter in α7LacZ+/− myoblasts); test: qHTS of the LOPAC library and MLSMR (online screen, α7LacZ+/− myoblasts); details: MLSMR qHTS, myoblasts

SMILES: CCOC(=O)c1nnn(-c2nonc2OC)c1-c1ccccc1 [MLS000045588-01]
Burkin Assay in Myoblasts, signal relative to DMSO ([1]; 0.5 uM): 1.016
Burkin Assay in Myoblasts, signal relative to DMSO ([1]; 1 uM): 1.107
Burkin Assay in Myoblasts, signal relative to DMSO ([1]; 5 uM): 1.075
Burkin Assay in Myoblasts, signal relative to DMSO ([1]; 10 uM): 0.917
Burkin Assay in Myoblasts, signal relative to DMSO ([1]; 20 uM): 1.003
Burkin Assay in Myoblasts, signal relative to DMSO ([1]; 40 uM): 0.8919
Burkin Assay in Myotubes, α7 integrin LacZ reporter signal relative to DMSO ([2]; 0.5 uM): 1.077
Burkin Assay in Myotubes, α7 integrin LacZ reporter signal relative to DMSO ([2]; 1 uM): 1.099
Burkin Assay in Myotubes, α7 integrin LacZ reporter signal relative to DMSO ([2]; 5 uM): 1.135
Burkin Assay in Myotubes, α7 integrin LacZ reporter signal relative to DMSO ([2]; 10 uM): 1.036
Burkin Assay in Myotubes, α7 integrin LacZ reporter signal relative to DMSO ([2]; 20 uM): 1.063
Burkin Assay in Myotubes, α7 integrin LacZ reporter signal relative to DMSO ([2]; 40 uM): 0.9546
CMV-LACZ in Myoblasts (β-galactosidase activity relative to DMSO) ([3]; 0.5 uM): 0.7647
CMV-LACZ in Myoblasts (β-galactosidase activity relative to DMSO) ([3]; 1 uM): 0.8372
CMV-LACZ in Myoblasts (β-galactosidase activity relative to DMSO) ([3]; 5 uM): 1.0245
CMV-LACZ in Myoblasts (β-galactosidase activity relative to DMSO) ([3]; 10 uM): 1.0611
CMV-LACZ in Myoblasts (β-galactosidase activity relative to DMSO) ([3]; 20 uM): 0.8056
CMV-LACZ in Myoblasts (β-galactosidase activity relative to DMSO) ([3]; 40 uM): 1.2167
CMV-LACZ in Myotubes, signal relative to DMSO ([4]; 0.5 uM): 0.9059
CMV-LACZ in Myotubes, signal relative to DMSO ([4]; 1 uM): 0.8607
CMV-LACZ in Myotubes, signal relative to DMSO ([4]; 5 uM): 1.2294
CMV-LACZ in Myotubes, signal relative to DMSO ([4]; 10 uM): 0.9776
CMV-LACZ in Myotubes, signal relative to DMSO ([4]; 20 uM): 1.0494
CMV-LACZ in Myotubes, signal relative to DMSO ([4]; 40 uM): 0.9424

EC50 [2]: 2.2 µM
SMILES: CN(C)c1ccnc2sc(C(N)=O)c(N)c12 [MLS000532969]
Online Screen Score [5]: 44

SMILES: CC1CCCCN1c1ncnc(N)c1[N+](=O)[O-] (stereo not shown) [MLS000683234]
MT FOLD INCREASE [2]: 1.7 fold
EC50 [2]: 27 µM
Online Screen Fold-change [5]: 2.6
Online Screen Score [5]: 46

SMILES: O=C(Nc1ccc(N2CCN(C(=O)c3ccccc3F)CC2)cc1)c1cncc(Br)c1 [MLS001060533]
MT FOLD INCREASE [2]: 1.5 fold
EC50 [2]: 4.7 µM
Online Screen Fold-change [5]: 1.9
Online Screen Score [5]: 42

SMILES: C[C@H]1CNC(=O)c2c(C(=O)Nc3ccc(CNC(=O)OC(C)(C)C)cc3)ncn21 [MLS003126425]
MT FOLD INCREASE [2]: 2.0 fold
EC50 [2]: 7 µM
Online Screen Fold-change [5]: 1.9
Online Screen Score [5]: 43

SMILES: Cc1cc(C)c(/C=C2\C(=O)Nc3ccccc32)[nH]1 [NCGC00094381-04]
CMV-LACZ in Myoblasts, value relative to DMSO ([3]; 0.5 uM): 1.0763
CMV-LACZ in Myoblasts, value relative to DMSO ([3]; 5 uM): 1.1366
CMV-LACZ in Myoblasts, value relative to DMSO ([3]; 10 uM): 0.9770
CMV-LACZ in Myoblasts, value relative to DMSO ([3]; 20 uM): 0.9330
CMV-LACZ in Myoblasts, value relative to DMSO ([3]; 40 uM): 0.9697
CMV-LACZ in Myotubes, value relative to DMSO ([4]; 0.5 uM): 1.0845
CMV-LACZ in Myotubes, value relative to DMSO ([4]; 1 uM): 1.4927
CMV-LACZ in Myotubes, value relative to DMSO ([4]; 5 uM): 1.2849
CMV-LACZ in Myotubes, value relative to DMSO ([4]; 10 uM): 1.1010
CMV-LACZ in Myotubes, value relative to DMSO ([4]; 20 uM): 3.8710
CMV-LACZ in Myotubes, value relative to DMSO ([4]; 40 uM): 8.1220
